Assay results published in patent US4837204A, “Functionalized peptidyl aminodiols and -triols” (Abbott Laboratories, priority 1988, dated 1989).

target: T1, human renal renin (Homo sapiens, UniProt P00797); assay: in vitro inhibition of human renal renin (angiotensin I formed measured by radioimmunoassay); type: biochemical; details: human renal renin with renin substrate (human angiotensinogen), 37° C., pH 6.0
T1 construct: human renal renin, free from acid proteolytic activity; from tissue
T1 sequence (P00797 67-406): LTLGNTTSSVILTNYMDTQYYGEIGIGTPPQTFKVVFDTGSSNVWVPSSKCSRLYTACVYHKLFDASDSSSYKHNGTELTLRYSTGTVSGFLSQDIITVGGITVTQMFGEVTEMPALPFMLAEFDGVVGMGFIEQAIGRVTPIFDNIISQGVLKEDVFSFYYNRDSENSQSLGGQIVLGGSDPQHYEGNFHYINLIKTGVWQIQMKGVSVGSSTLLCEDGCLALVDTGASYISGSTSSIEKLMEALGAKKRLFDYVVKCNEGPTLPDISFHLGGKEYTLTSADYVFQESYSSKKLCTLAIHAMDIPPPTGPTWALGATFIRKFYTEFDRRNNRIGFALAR

IC50 [nM] | Compound
6 | CC(C)CCC(=O)NC[C@H](O)[C@H](O)[C@H](CC1CCCCC1)NC(=O)C(Cc1cc[nH]n1)NC(=O)[C@H](Cc1ccccc1)NC(=O)OC(C)(C)C (stereo partly drawn) [Example 15, Boc-Phe-d,l-3-pyrazolylalanine Amide of (2S,3R,4S)-1-(3-Methylbutylcarbonylamino)-2,3-dihydroxy-4-amino-5-cyclohexylpentane]
4 | CC(C)C(=O)N[C@H](C(=O)N[C@@H](Cc1c[nH]cn1)C(=O)N[C@@H](CC1CCCCC1)[C@@H](O)[C@@H](O)CN=[N+]=[N-])[C@@H](C)OCc1ccccc1 [Example 52, Isobutyryl (O-benzyl)Thr-His Amide of (2S,3R,4S)-1-Azido-2,3-dihydroxy-4-amino-5-cyclohexylpentane]
10 | CC(C)CS(=O)(=O)NC[C@H](O)[C@H](O)[C@H](CC1CCCCC1)NC(=O)[C@H](Cc1c[nH]cn1)NC(=O)[C@H](Cc1ccccc1)NC(=O)OC(C)(C)C [Example 16, Boc-Phe-His Amide of (2S,3R,4S)-1-(Isobutylsulfonylamino)-2,3-dihydroxy-4-amino-5-cyclohexylpentane]
4 | CC(C)CCC(=O)NC[C@H](O)[C@H](O)[C@H](CC1CCCCC1)NC(=O)[C@H](Cc1c[nH]cn1)NC(=O)[C@H](Cc1ccccc1)NC(=O)OC(C)(C)C [Example 14, Boc-Phe-His Amide of (2S,3R,4S)-1-(3-Methylbutylcarbonylamino)-2,3-dihydroxy-4-amino-5-cyclohexylpentane]
55 | C[C@H](NC(=O)[C@H](Cc1ccccc1)NC(=O)OC(C)(C)C)C(=O)N[C@@H](CC1CCCCC1)[C@@H](O)[C@@H](O)CN [Example 31, Boc-Phe-Ala Amide (4-amino) of (2S,3R,4S)-1,4-Diamino-2,3-dihydroxy-5-cyclohexylpentane]
10 | COc1ccc(C[C@H](NC(=O)N(C)C)C(=O)N[C@@H](Cc2c[nH]cn2)C(=O)N[C@@H](CC2CCCCC2)[C@@H](O)[C@@H](O)CN=[N+]=[N-])cc1 [Example 69, Dimethylaminocarbonyl (O-methyl)Tyr-His Amide of (2S,3R,4S)-1-Azido-2,3-dihydroxy-4-amino-5-cyclohexylpentane]
1 | CC(C)(CC(=O)N[C@@H](Cc1ccccc1)C(=O)N[C@@H](Cc1c[nH]cn1)C(=O)N[C@@H](CC1CCCCC1)[C@@H](O)[C@@H](O)CN=[N+]=[N-])CC(=O)OC(C)(C)C [Example 70, (4-t-Butyloxycarbonyl-3,3-dimethyl)butanoyl-Phe-His Amide of (2S,3R,4S)-1-Azido-2,3-dihydroxy-4-amino-5-cyclohexylpentane]
10 | C[C@H](NC(=O)[C@H](Cc1ccccc1)NC(=O)OC(C)(C)C)C(=O)N[C@@H](CC1CCCCC1)[C@@H](O)[C@@H](O)CN=[N+]=[N-] [Example 20, Boc-Phe-Ala-OH Amide of (2S,3R,4S)-1-Azido-2,3-dihydroxy-4-amino-5-cyclohexylpentane]
30 | CCOC(=O)N[C@@H](Cc1ccccc1)C(=O)N[C@@H](CC(C)C)C(=O)N[C@@H](CC1CCCCC1)C(O)C(O)C(O)C(C)C (single isomer, unassigned) [Example 36A]
50 | CCOC(=O)N[C@@H](CC(C)C)C(=O)N[C@@H](CC(C)C)C(=O)N[C@@H](CC1CCCCC1)C(O)C(O)CO (stereo partly drawn) [Example 32, Ethoxycarbonyl-Leu-Leu Amide of (2RS,3RS,4S)-Amino-5-cyclohexyl-1,2,3-trihydroxypentane]
0.4 | CC(C)(C)OC(=O)N[C@@H](Cc1ccccc1)C(=O)N[C@@H](Cc1c[nH]cn1)C(=O)N[C@@H](CC1CCCCC1)[C@@H](O)[C@@H](O)CN=[N+]=[N-] [Example 17, Boc-Phe-His Amide of (2S,3R,4S)-1-Azido-2,3-dihydroxy-4-amino-5-cyclohexlpentane]
10 | CCOC(=O)N[C@@H](Cc1ccccc1)C(=O)N[C@@H](CC(C)C)C(=O)N[C@@H](CC1CCCCC1)C(O)C(O)C(O)C(C)C (single isomer, unassigned) [Example 36B]
0.65 | COc1ccc(C[C@H](NC(=O)OC(C)(C)C)C(=O)N[C@@H](Cc2c[nH]cn2)C(=O)N[C@@H](CC2CCCCC2)[C@@H](O)[C@@H](O)CN=[N+]=[N-])cc1 [Example 19, Boc-(O-methyl)Tyr-His Amide of (2S,3R,4S)-1-Azido-2,3-dihydroxy-4-amino-5-cyclohexylpentane]

Compound | IC50 [nM]
COc1ccc(C[C@H](NC(=O)C(C)C)C(=O)N[C@@H](Cc2c[nH]cn2)C(=O)N[C@@H](CC2CCCCC2)[C@@H](O)[C@@H](O)CN=[N+]=[N-])cc1 [Example 47, Isobutyryl (O-methyl)Tyr-His Amide of (2S,3R,4S)-1-Azido-2,3-dihydroxy-4-amino-5-cyclohexylpentane] | 2
COc1ccc(C[C@H](NC(=O)N2CCOCC2)C(=O)N[C@@H](Cc2c[nH]cn2)C(=O)N[C@@H](CC2CCCCC2)[C@@H](O)[C@@H](O)CN=[N+]=[N-])cc1 [Example 72, Morpholinocarbonyl (O-methyl)Tyr-His Amide of (2S,3R,4S)-1-Azido-2,3-dihydroxy-4-amino-5-cyclohexylpentane] | 4
